Source: US20250059231A1, “Protease inhibitors” (priority 2021, published 2025)
Where a SMILES comes first, the peptide text is derived from it. The star is where a group is joined. Palmitoyl = CCCCCCCCCCCCCCCC(=O)*

What was measured:
IL-12 = assay: DENV2 infection in AG129 mice: plasma IL-12 (ELISA); type: in vivo; conditions: 10 mg/kg I.P, b.i.d; n = 9; vs vehicle control
Experimental: Administration of compounds and vehicle to animals started twenty four hours before infection (Day −1). Animals were treated daily (From Day-1 to day 4) as per the experimental design shown below in table 3.1.5. Animals were monitored for general clinical signs, morbidity and mortality. Body weights were measured daily.
Cytokine levels (TNF alpha, IL-6 and IL-12) in plasma samples were measured using Enzyme-Linked Immunosorbent Assay (ELISA). Mouse TNF alpha ELISA Kit (Abcam: ab208348), Mouse IL-6 ELISA Kit (Abcam: ab100712), and Mouse IL-12 p40+IL-12 p70 ELISA Kit (Abcam: ab100699) were used to estimate TNF alpha, IL-6 and IL-12, respectively. The assays were performed according to the manufacturer's instructions and was analysed on a TECAN-NanoQuant Plate™ system.
The Mean±SD Log10PFU/ml, relative Mean±SD spleen weight, Mean±SD biomarker concentrations were estimated in each group. Significant differences between group means and control were analyzed by one-way ANOVA, followed by a Dunnett's multiple comparison test, using GraphPad Prism 5 at 95% confidence levels. A p value of <0.05 was considered as significant.

[1] = Tissue distribution (biodistribution) in rats; type: in vivo; conditions: FIG. 5C after intravenous injection
Excerpt: FIG. 5C-tissue distribution after intravenous injection in rats, measured by ratio concentration tissue over plasma.
Following administration, molecules reach the systemic circulation via either the blood capillaries or the lymphatic system.

[2] = Cytotoxicity (method not described); type: cell-based
WNV protease = target: T1, WNV protease (West Nile virus, UniProt P06935); assay: WNV protease assay (analogous procedure); type: biochemical; conditions: at 50 μM
T1 construct: a trypsin-like serine protease domain in the N-terminal region of the flaviviral NS3 proteins
T1 sequence (P06935 1424-1463): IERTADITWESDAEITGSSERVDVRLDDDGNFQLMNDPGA
T1 sequence (P06935 1502-1679): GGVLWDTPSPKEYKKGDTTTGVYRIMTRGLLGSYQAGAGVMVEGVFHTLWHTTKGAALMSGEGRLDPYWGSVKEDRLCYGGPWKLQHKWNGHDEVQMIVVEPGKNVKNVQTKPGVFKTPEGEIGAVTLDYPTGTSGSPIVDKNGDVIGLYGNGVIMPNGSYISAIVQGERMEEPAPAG
Procedure, shortened: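 Adapted from the DENV protease assay: inhibitors preincubated 15 min with protease (DENV at 100 nM) in 50 mM Tris-HCl pH 9.0, 10% ethylene glycol, 0.0016% Brij 58, then FRET substrate (50 μM final) added.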

human Thrombin = human Thrombin (Homo sapiens, UniProt P00734); assay: Selectivity screening, human serine protease thrombin; type: biochemical; conditions: at 5 μM; read-out: inhibition of human Thrombin
human Trypsin = human Trypsin (Homo sapiens, UniProt P07477); assay: Selectivity screening, human serine protease trypsin; type: biochemical; conditions: read-out: inhibition of human Trypsin
Procedure, shortened: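 Active candidates were counter-screened for selectivity against the human serine protease trypsin in a biochemical assay similar to the flavivirus protease assay. Cleavage of a substrate by protease activity raises fluorescence, which is read on a microtiter fluorescence plate reader. Compounds are diluted from 10 mM DMSO stocks and tested in triplicate, and inhibition of trypsin is reported.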

Structure (SMILES)	Plasma concentration of IL-12 in mouse plasma after treatment (IL-12)	tissue distribution, concentration in tissue (liver and spleen) versus plasma [1]	cytotoxicity [2]	EC50 (ZIKV) [µM]	inhibition at 50 µM (WNV protease) [%]	inhibition at 5 µM (human Thrombin) [%]	inhibition at 5 µM (human Trypsin; at 5 μM) [%]	inhibition at 25 µM (human Trypsin; at 25 μM) [%]
CCCCCCCCCCCCCCCC(=O)N[C@@H](CCCCN)CC(=O)N[C@@H](C)C(=O)N[C@@H](C)CC(=O)N[C@H](CCCCN)C(N)=O (stereo in doubt) [compound 113]	81.79 ± 14.30	could reach the main target sites of dengue	minimal cytotoxicity	≤ 10	–	–	–	–
CCCCCCCCCCCCCCCC(=O)N[C@@H](CCCNC(=N)N)C(=O)N[C@@H](CCC(N)=O)C(=O)N[C@@H](Cc1ccccc1)C(N)=O [compound 43] (Palmitoyl-Arg-Gln-Phe-NH2)	–	–	–	–	≥ 25	< 5	< 10	< 20
